Measurements taken from a melting point compilation (Tetko et al.; mined from patent text by program, amines drawn as free bases though some values may be those of a salt).

Row | melting point [°C] | Compound
1 | 172 | Cc1nc2ccc(NC(=O)CC34CC5CC(CC(C5)C3)C4)cc2s1
2 | 124 to 125 | Cc1oc(-c2ccco2)nc1COc1ccc(CON=C(CCC(=O)O)c2ccccc2)cc1
3 | 154 to 156 | COc1ccc2cccc(CC(=O)O)c2c1
4 | 107 to 110 | CCOC(C#N)NC(=O)c1ccccc1 (stereo not drawn)
5 | 145 to 148 | CN(C)CCOC1=C(c2ccccc2)CN(Cc2ccco2)C1=O
6 | 226 to 227 | CC(C)C1(C)NC(c2nc3ccccc3cc2C=O)=NC1=O (stereo not drawn)
7 | 108 to 110 | O=C(CCc1cccc(F)c1F)c1cnc2sc3c(n12)CCCCC3
8 | 130 to 132 | Cc1ccc(S(=O)(=O)N(C)c2ccc(Cl)cc2CO)cc1
9 | 130 to 131 | CC(C)(C)c1cc(-n2nc3ccc(Cl)cc3n2)c(O)c(C(C)(C)c2ccc(Cl)cc2)c1
10 | 76.9 to 78.6 | CCOC(=O)c1cn(CCc2ccccc2)nc1N
11 | 240 | O=C(OCC(OC(=O)c1ccccc1)c1nc2c(C(F)(F)F)cccc2c(O)c1C(=O)Nc1nccs1)c1ccccc1 (stereo not drawn)
12 | 93 | COCC(=O)C1CCC2C3CCC4CC(OC(C)=O)CCC4(C)C3C(=O)CC12C (stereo not drawn)
13 | 113 to 114 | COc1ccc(CCNC(=O)Cc2ccc(C(=O)c3ccccc3)cc2)cc1OC
14 | 262 to 263 | Oc1ccc(C2(c3ccc(O)cc3)CCC(c3ccccc3)CC2)cc1
15 | 245 to 249 | C#CCc1c(C)nc(N)[nH]c1=O
16 | 149 | FC(F)(F)c1cccc(N2CCN(c3ccc(Cl)nn3)CC2)c1
17 | 171 to 172 | O=C(O)COc1cccc2c1CCc1sc(SCC=Cc3ccccc3)nc1-2
18 | 115 to 120 | CCCCCCC(C(=O)O)n1ccc2cc(-c3ccccc3C(=O)O)ccc21 (stereo not drawn)
19 | 168 to 170 | CCOC(=O)c1cn(C[C@@H]2CN(c3ccc(N4CCC5(CC4)OCCO5)c(F)c3)C(=O)O2)nn1
20 | 81 to 83 | O=C(O)C1=Cc2c(F)cccc21
21 | 171 to 172 | Nc1cc(=O)n(Cc2ccc(Cl)c(Br)c2)[nH]1
22 | 85.5 to 89 | CN(C)c1ccccc1C(=O)N1CCC(=O)c2ccc(Cl)cc21
23 | 115 to 116 | C=CCc1cc2c(c(CC=C)c1O)CCC(=O)N2CC(O)CC (stereo not drawn)
24 | 281 to 283 | COc1cccc2c(=O)cc(-c3ccc(O)cc3)oc12

Row | melting point [°C] | Compound
25 | > 300 | O=[N+]([O-])c1cc2nc(Cl)c(Cl)nc2cc1Sc1ncc[nH]1
26 | 130 to 131 | CC(=O)NC(C)(C)Cc1ccc2c(c1)CCC2
27 | 132 to 134 | O=C(NCCn1ccnc1)c1sc2ccccc2c1Cl
28 | 199 to 200 | Brc1ccc2c(c1)oc1cc(Br)ccc12
29 | 206 to 208 | N#Cc1ccnc(C2=NC(c3ccc(F)cc3)(c3ccc(F)cc3)CN2)c1
30 | 95 to 98 | CC(C)(C)OC(=O)N[C@H]1CC[C@H](CCN2CCCN(c3cccc(Cl)c3Cl)CC2)CC1
31 | 59 to 60 | C=CCN(c1ccc(OC)cc1)S(=O)(=O)c1c(F)c(F)c(F)c(F)c1F
32 | 189 to 190 | CC(=O)Nc1ccc(C=CC(=O)C(C)CC(=O)O)cc1 (stereo not drawn)
33 | 75 to 76 | CCOC(=O)c1cnc2sc3c(n12)CCCC3
34 | 95 to 96 | CC1=C(C)C(Cl)N(c2ccc(Cl)c(Cl)c2)C1=O (stereo not drawn)
35 | 174 to 175 | CCCCn1cc(C2CCN(Cc3ccc(OC)c(C(=O)O)c3)CC2)c2cccnc21
36 | > 275 | CC(=O)NC1CC(N)(C(=O)O)C2C(C(=O)O)C12 (stereo not drawn)
37 | 89 to 91 | COCCC(=O)c1cc(C(=O)OC)c(N)cc1C(F)(F)F
38 | 343 to 345 | COc1cc(OC)c(-c2ccc(O)c(C34CC5CC(CC(C5)C3)C4)c2)cc1C=C1SC(C2CCNC2)=NC1=O (stereo not drawn)
39 | 111 to 112 | CC(c1ccc(-c2ccccc2)c(F)c1)c1nc(CC#N)no1 (stereo not drawn)
40 | 72 to 75 | COc1cc(Nc2nccc(Nc3cccc(C)c3S(N)(=O)=O)n2)cc(OC)c1OC
41 | 139 to 141 | O=C(CBr)CN1C(=O)c2ccccc2C1=O
42 | 110 to 112 | CC(C)(Sc1cc(C(C)(C)C)c(O)c(C(C)(C)C)c1)Sc1cc(C(C)(C)C)c(OCC[C@H](O)CO)c(C(C)(C)C)c1
43 | 189 to 191 | COC(=O)c1ncn2c1c(OC)nc1ccccc12
44 | 82 | CC(C)(C)OC(=O)N1CCOC[C@H]1CC(=O)O
45 | 121 to 123 | CCCOc1c(OC)cc(C(=O)O)cc1[N+](=O)[O-]
46 | 150 to 160 | Nc1nc2c(s1)CCNCC2
47 | 361 to 363 | Cc1sc2nc3ccc(C(N)=O)cn3c(=O)c2c1C
48 | 131 | CC1(C)CC[C@@H](C(=O)O)[C@@H]1SC(=O)c1ccccc1 (relative stereo)

Row | melting point [°C] | Compound
49 | 88 | COc1ccc(SC(C)(Cc2ccccc2)C(=O)NO)cc1 (stereo not drawn)
50 | 147 to 148 | O=C1c2c(-c3ccccc3)noc2CCC1CCCN1CCC(O)(c2ccc(Cl)cc2)CC1 (stereo not drawn)
51 | > 300 | CC1(C)C(=O)Nc2cc3[nH]c(O)nc3cc21
52 | 194 to 195 | O=c1c2cc3nnn(C4CC4)c(=O)c3cc2ncn1CCn1ncnn1
53 | 120 | CCn1cccc(C2c3cc(C(=O)OC)ccc3OC(C)(C)C2O)c1=O (stereo not drawn)
54 | 271 | CCOC(=O)c1c[nH]c2ccc(C(=O)c3c(C)c(OC)c4ccccn34)cc2c1=O
55 | 270 to 280 | O=C(CCNc1c(C(=O)O)[nH]c2cc(Cl)cc(Cl)c12)c1cccc(F)c1
56 | 169 to 173 | COc1cc2c3c(c1)c(=O)c(Cc1cccnc1)cn3-c1cc(Br)ccc1S2
57 | 81.5 to 83.5 | CCCCCCCCCCCCCCc1ccc(OCC(O)CO)cc1 (stereo not drawn)
58 | 119 | O=C(COc1cc(Cl)c(Cl)cc1Cl)OCNC(=O)Oc1ccccc1Cl
59 | 203 to 205 | COc1ccccc1-c1c(NC(=O)OC(C)(C)C)oc(=O)c2ccccc12
60 | 300 | NC(=O)Nc1ccc2c(c1)N1CCN=C1S2
61 | 135 to 137 | CCCCSc1nnc(N(C)C(=O)NC)s1
62 | 116 to 117 | O=C(O)COc1ccc(OCCCCc2ccccc2)cc1
63 | 299 to 302 | O=c1[nH]c2cc(Cl)cc(Cl)c2c(=O)n1Cc1cccc(I)c1
64 | 149 to 151 | O=C(NCC(C=C1CCCCC1[N+](=O)[O-])=NO)c1cccnc1 (stereo not drawn)
65 | 198 to 200 | CCOC(=O)c1cn(C)c2cc(OC)ccc2c1=O
66 | 118 to 121 | O=C(O)C1(c2ccccc2)CCCCC1
67 | 250 to 255 | C[C@@H](CO)n1cc(C(=O)O)c(=O)c2cc(F)c(N3CCN(C)CC3)c(F)c21
68 | 215 to 217 | O=C(NC1CCN(Cc2ccccc2)CC1)c1c[nH]c2ccc(F)cc12
69 | 41 | CCCCc1ccc(-c2ccc(CCc3ccc(C)cc3)cc2)c(F)c1
70 | 110 | O=C(O)Cc1ccc(CCNC(=O)C2Cc3ccccc3N2S(=O)(=O)c2ccc(-c3cccc(C(F)(F)F)c3)cc2)cc1 (stereo not drawn)
71 | 254 to 256 | O=C(NNC(=O)c1ccc([N+](=O)[O-])cc1)c1ccccc1

Row | Compound | melting point [°C]
72 | CCCc1c(C(=O)C(C)C)c2ccc(C(N)=O)cc2n1Cc1ccccc1OC | 174 to 175
73 | CN1C(=O)C(NC(=O)NC23CC4CC(CC(C4)C2)C3)N=C(c2ccccc2)c2ccccc21 (stereo not drawn) | 264 to 265
